Patent EP2218441A1, “Methods for the prevention and/or treatment of age spots” (Rahn Ag, priority 2009, dated 2010)

Tested on: human keratinocytes (NHKs)
Experiment: Lipofuscin autofluorescence in human keratinocytes under H2O2 oxidative stress, normalized to total protein
Assay type: cell-based
Details: Keratinocyte, 48 h, 0.5 µg/ml oleuropein for 24 h before and 2 days after the stress, 1 mM H2O2 for 20 minutes, measured 2 days after oxidative stress, read-out: decrease of lipofuscin formation, as compared to untreated H2O2- exposed cells
Protocol: Because there is no specific lipofuscin antibody and its composition varies between different cell types, lipofuscin autofluorescence is the most widely used method for its detection and quantification. In order to evaluate the effect of oleuropein on lipofuscin formation in oxidatively stressed cells, lipofuscin accumulation was measured by autofluorescence, after induction of oxidative stress to human keratinocytes, treated or not with oleuropein.
After 24h incubation with oleuropein, the cells were treated with 1mM H2O2 for 20 minutes. After a recovery time of 2, 4 or 7 days, representative pictures of cells were taken and lipofuscin amount was quantified by autofluorescence measurement. […]
After 2, 4 and 7 days, respectively, representative pictures of the cells were taken, and lipofuscin autofluorescence was measured.
The total protein content was determined at each time-point for data normalization purposes. […]
The autofluorescence of lipofuscin was detected at wavenlengths of 570-605nm after an excitation at 366nm, using a fluorometer (Vistor2TM, PerkinElmer, Belgium).
For each condition tested, the quantity of autofluorescent lipofuscin was normalized to the amount of total proteins. […] The dosage of proteins was performed following the Bradford method, based on the detection of the absorbance of Coomassie Blue (Coomassie Protein Assay Kit, Pierce, USA). […]

Q: With `C/C=C1/[C@H](O[C@@H]2O[C@H](CO)[C@@H](O)[C@H](O)[C@H]2O)OC=C(C(=O)OC)[C@H]1CC(=O)OCCc1ccc(O)c(O)c1` [oleuropein, Oleuropein] as the compound, how does the inhibition at 0.5 µg/mL read?
A: 13%
